Reference: patent US20250034167A1, “HETEROCYCLIC COMPOUNDS AND METHODS OF USE” (AMGEN INC., priority 2021, published 2025)

How the values were obtained:
[1] = system: Phosphorylation of ERK1/2 in AsPC-1 cells; assay: Phospho-ERK1/2 MSD Assay; format: cell-based; details: Homo sapiens, ASPC1, 2 h, read-out: 2 h p-ERK (AsPC-1 cells), IC50, AsPC-1 cells, 2 h compound treatment
Description: Sixteen hours prior to compound treatment, AsPC-1 cells were seeded in 96-well cell culture plates at a density of 25,000 cells/well and incubated at 37° C., 5% CO2. A compound dose-response titration was diluted in growth media, added to appropriate wells of a cell culture plate, and then incubated at 37° C., 5% CO2 for 2 hours.

[2] = biological target: His-tagged KRAS G12D protein (Homo sapiens, UniProt P01116, G12D); assay: biochemical
Chain of His-tagged KRAS G12D protein (P01116 1-188 isoform P01116-2 G12D): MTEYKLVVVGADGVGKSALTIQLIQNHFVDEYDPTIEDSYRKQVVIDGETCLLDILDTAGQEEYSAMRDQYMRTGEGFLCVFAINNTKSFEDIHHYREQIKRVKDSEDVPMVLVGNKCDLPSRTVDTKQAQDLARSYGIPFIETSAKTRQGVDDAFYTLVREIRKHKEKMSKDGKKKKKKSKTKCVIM

| IC50 [1] [nM] | IC50 [2] [nM] | Structure (SMILES) |
| --- | --- | --- |
| 6620 | 83 | CCc1c(F)ccc2cc(O)cc(-c3ncc4c(N5CC(C)(O)C5)nc(OC[C@@]56CCCN5C[C@H](F)C6)nc4c3F)c12 [Example 92, 1-(7-(8-Ethyl-7-fluoro-3-hydroxynaphthalen-1-yl)-8-fluoro-2-(((2R,7aS)-2-fluorotetrahydro-1H-pyrrolizin-7a(5H)-yl)methoxy)pyrido[4,3-d]pyrimidin-4-yl)-3-methylazetidin-3-ol] |
| 100 | 2 | CCc1c(F)ccc2cc(O)cc(-c3ncc4c(N5CCCCCCC5)nc(OC[C@@]56CCCN5C[C@H](F)C6)nc4c3F)c12 [Example 93, 4-(4-(Azocan-1-yl)-8-fluoro-2-(((2R,7aS)-2-fluorotetrahydro-1H-pyrrolizin-7a(5H)-yl)methoxy)pyrido[4,3-d]pyrimidin-7-yl)-5-ethyl-6-fluoronaphthalen-2-ol] |
| 1560 | 33 | CCc1c(F)ccc2cc(O)cc(-c3ncc4c(N5CC6CCC(C5)C6O)nc(OC[C@@]56CCCN5C[C@H](F)C6)nc4c3F)c12 (stereo partly drawn) [Example 97, 3-(7-(8-Ethyl-7-fluoro-3-hydroxynaphthalen-1-yl)-8-fluoro-2-(((2R,7aS)-2-fluorotetrahydro-1H-pyrrolizin-7a(5H)-yl)methoxy)pyrido[4,3-d]pyrimidin-4-yl)-3-azabicyclo[3.2.1]octan-8-ol] |
| 2840 | 80 | CCc1c(F)ccc2cc(O)cc(-c3ncc4c(N5CC6CCC(C5)C6(C)O)nc(OC[C@@]56CCCN5C[C@H](F)C6)nc4c3F)c12 (stereo partly drawn) [Example 98, 3-(7-(8-Ethyl-7-fluoro-3-hydroxynaphthalen-1-yl)-8-fluoro-2-(((2R,7aS)-2-fluorotetrahydro-1H-pyrrolizin-7a(5H)-yl)methoxy)pyrido[4,3-d]pyrimidin-4-yl)-8-methyl-3-azabicyclo[3.2.1]octan-8-ol] |
| 794 | 11 | CCc1c(F)ccc2cc(O)cc(-c3ncc4c(N5CCC6CC6(O)C5)nc(OC[C@@]56CCCN5C[C@H](F)C6)nc4c3F)c12 (stereo partly drawn) [Example 99, 3-(7-(8-Ethyl-7-fluoro-3-hydroxynaphthalen-1-yl)-8-fluoro-2-(((2R,7aS)-2-fluorotetrahydro-1H-pyrrolizin-7a(5H)-yl)methoxy)pyrido[4,3-d]pyrimidin-4-yl)-3-azabicyclo[4.1.0]heptan-1-ol] |
| 1900 | 2 | CCc1c(F)ccc2cc(O)cc(-c3ncc4c(N5C[C@H](O)C[C@@H](O)C5)nc(OC[C@@]56CCCN5C[C@H](F)C6)nc4c3F)c12 [Example 102, (3R,5R)-1-(7-(8-Ethyl-7-fluoro-3-hydroxynaphthalen-1-yl)-8-fluoro-2-(((2R,7aS)-2-fluorotetrahydro-1H-pyrrolizin-7a(5H)-yl)methoxy)pyrido[4,3-d]pyrimidin-4-yl)piperidine-3,5-diol] |
| 939 | 9 | CCc1c(F)ccc2cc(O)cc(-c3ncc4c(N5CC6CCC(C6)C5)nc(OC[C@@]56CCCN5C[C@H](F)C6)nc4c3F)c12 [Example 105, 4-(4-(3-Azabicyclo[3.2.1]octan-3-yl)-8-fluoro-2-(((2R,7aS)-2-fluorotetrahydro-1H-pyrrolizin-7a(5H)-yl)methoxy)pyrido[4,3-d]pyrimidin-7-yl)-5-ethyl-6-fluoronaphthalen-2-ol] |
| > 10000 | 9 | CCc1c(F)ccc2cc(O)cc(-c3ncc4c(N5C[C@H](O)[C@@H](O)C5)nc(OC[C@@]56CCCN5C[C@H](F)C6)nc4c3F)c12 [Example 117, (3S,4S)-1-(7-(8-Ethyl-7-fluoro-3-hydroxynaphthalen-1-yl)-8-fluoro-2-(((2R,7aS)-2-fluorotetrahydro-1H-pyrrolizin-7a(5H)-yl)methoxy)pyrido[4,3-d]pyrimidin-4-yl)pyrrolidine-3,4-diol] |
| 105 | 3 | CCc1c(F)ccc2cc(O)cc(-c3ncc4c(N5CC(O)CC(F)(F)C5)nc(OC[C@@]56CCCN5C[C@H](F)C6)nc4c3F)c12 (stereo partly drawn) [Example 118, 1-(7-(8-Ethyl-7-fluoro-3-hydroxynaphthalen-1-yl)-8-fluoro-2-(((2R,7aS)-2-fluorotetrahydro-1H-pyrrolizin-7a(5H)-yl)methoxy)pyrido[4,3-d]pyrimidin-4-yl)-5,5-difluoropiperidin-3-ol] |
| 222 | 4 | CCc1c(F)ccc2cc(O)cc(-c3ncc4c(N5CCC(O)C(F)(F)CC5)nc(OC[C@@]56CCCN5C[C@H](F)C6)nc4c3F)c12 (stereo partly drawn) [Example 120, 1-(7-(8-Ethyl-7-fluoro-3-hydroxynaphthalen-1-yl)-8-fluoro-2-(((2R,7aS)-2-fluorotetrahydro-1H-pyrrolizin-7a(5H)-yl)methoxy)pyrido[4,3-d]pyrimidin-4-yl)-5,5-difluoroazepan-4-ol] |
| 3340 | 37 | CCc1c(F)ccc2cc(O)cc(-c3ncc4c(N5CCC[C@@H](C(=O)OC)C5)nc(OC[C@@]56CCCN5C[C@H](F)C6)nc4c3F)c12 [Example 126, Methyl (R)-1-(7-(8-ethyl-7-fluoro-3-hydroxynaphthalen-1-yl)-8-fluoro-2-(((2R,7aS)-2-fluorotetrahydro-1H-pyrrolizin-7a(5H)-yl)methoxy)pyrido[4,3-d]pyrimidin-4-yl)piperidine-3-carboxylate] |
| 64 | 1 | CCc1c(F)ccc2cc(O)cc(-c3ncc4c(N5CCCC[C@@H](O)C5)nc(OC[C@@]56CCCN5C[C@H](F)C6)nc4c3F)c12 [Example 129, (R)-1-(7-(8-Ethyl-7-fluoro-3-hydroxynaphthalen-1-yl)-8-fluoro-2-(((2R,7aS)-2-fluorotetrahydro-1H-pyrrolizin-7a(5H)-yl)methoxy)pyrido[4,3-d]pyrimidin-4-yl)azepan-3-ol] |
| 119 | 1 | CCc1c(F)ccc2cc(O)cc(-c3ncc4c(N5CCCC[C@@H](NC(=O)C(F)F)C5)nc(OC[C@@]56CCCN5C[C@H](F)C6)nc4c3F)c12 [Example 132, N-((R)-1-(7-(8-Ethyl-7-fluoro-3-hydroxynaphthalen-1-yl)-8-fluoro-2-(((2R,7aS)-2-fluorotetrahydro-1H-pyrrolizin-7a(5H)-yl)methoxy)pyrido[4,3-d]pyrimidin-4-yl)azepan-3-yl)-2,2-difluoroacetamide] |
| 661 | 2 | CCc1c(F)ccc2cc(O)cc(-c3ncc4c(N5CCCC[C@@H](NC(C)=O)C5)nc(OC[C@@]56CCCN5C[C@H](F)C6)nc4c3F)c12 [Example 133, N-((R)-1-(7-(8-Ethyl-7-fluoro-3-hydroxynaphthalen-1-yl)-8-fluoro-2-(((2R,7aS)-2-fluorotetrahydro-1H-pyrrolizin-7a(5H)-yl)methoxy)pyrido[4,3-d]pyrimidin-4-yl)azepan-3-yl)acetamide] |
| 81 | 1 | CCc1c(F)ccc2cc(O)cc(-c3ncc4c(N5CCC=CC(O)C5)nc(OC[C@@]56CCCN5C[C@H](F)C6)nc4c3F)c12 (stereo partly drawn) [Example 135, 1-(7-(8-Ethyl-7-fluoro-3-hydroxynaphthalen-1-yl)-8-fluoro-2-(((2R,7aS)-2-fluorotetrahydro-1H-pyrrolizin-7a(5H)-yl)methoxy)pyrido[4,3-d]pyrimidin-4-yl)-2,3,6,7-tetrahydro-1H-azepin-3-ol] |
| > 10000 | 16 | CCc1c(F)ccc2cc(O)cc(-c3ncc4c(N5CCC[C@@H](C(=O)O)C5)nc(OC[C@@]56CCCN5C[C@H](F)C6)nc4c3F)c12 [Example 138, (R)-1-(7-(8-Ethyl-7-fluoro-3-hydroxynaphthalen-1-yl)-8-fluoro-2-(((2R,7aS)-2-fluorotetrahydro-1H-pyrrolizin-7a(5H)-yl)methoxy)pyrido[4,3-d]pyrimidin-4-yl)piperidine-3-carboxylic acid] |
| 116 | 5 | CCc1c(F)ccc2cc(O)cc(-c3ncc4c(N5CCC=CCC5)nc(OC[C@@]56CCCN5C[C@H](F)C6)nc4c3F)c12 [Example 139, 5-Ethyl-6-fluoro-4-(8-fluoro-2-(((2R,7aS)-2-fluorotetrahydro-1H-pyrrolizin-7a(5H)-yl)methoxy)-4-(2,3,6,7-tetrahydro-1H-azepin-1-yl)pyrido[4,3-d]pyrimidin-7-yl)naphthalen-2-ol] |
| 81 | 3 | CCc1c(F)ccc2cc(O)cc(-c3ncc4c(N5C[C@H](N)CC(F)(F)C5)nc(OC[C@@]56CCCN5C[C@H](F)C6)nc4c3F)c12 [Example 140, 4-(4-((R)-5-Amino-3,3-difluoropiperidin-1-yl)-8-fluoro-2-(((2R,7aS)-2-fluorotetrahydro-1H-pyrrolizin-7a(5H)-yl)methoxy)pyrido[4,3-d]pyrimidin-7-yl)-5-ethyl-6-fluoronaphthalen-2-ol] |
| 198 | 4 | CCc1c(F)ccc2cc(O)cc(-c3ncc4c(N5CCCC(O)CC5)nc(OC[C@@]56CCCN5C[C@H](F)C6)nc4c3F)c12 (stereo partly drawn) [Example 141, 1-(7-(8-Ethyl-7-fluoro-3-hydroxynaphthalen-1-yl)-8-fluoro-2-(((2R,7aS)-2-fluorotetrahydro-1H-pyrrolizin-7a(5H)-yl)methoxy)pyrido[4,3-d]pyrimidin-4-yl)azepan-4-ol] |
| > 10000 | 62 | CCc1c(F)ccc2cc(O)cc(-c3ncc4c(N5CCCC(N)CC5)nc(OC[C@@]56CCCN5C[C@H](F)C6)nc4c3F)c12 (stereo partly drawn) [Example 143, 4-(4-(4-Aminoazepan-1-yl)-8-fluoro-2-(((2R,7aS)-2-fluorotetrahydro-1H-pyrrolizin-7a(5H)-yl)methoxy)pyrido[4,3-d]pyrimidin-7-yl)-5-ethyl-6-fluoronaphthalen-2-ol] |

| Structure (SMILES) | IC50 [1] [nM] | IC50 [2] [nM] |
| --- | --- | --- |
| CCc1c(F)ccc2cc(O)cc(-c3ncc4c(N5CC6CCC(C5)C(C#N)C6)nc(OC[C@@]56CCCN5C[C@H](F)C6)nc4c3F)c12 (stereo partly drawn) [Example 147, 3-(7-(8-Ethyl-7-fluoro-3-hydroxynaphthalen-1-yl)-8-fluoro-2-(((2R,7aS)-2-fluorotetrahydro-1H-pyrrolizin-7a(5H)-yl)methoxy)pyrido[4,3-d]pyrimidin-4-yl)-3-azabicyclo[3.2.2]nonane-6-carbonitrile] | 714 | 15 |
